# Results from patent publication US8946426B2, “Substituted bicyclic heterocyclic compounds as gamma secretase modulators” (Janssen Pharmaceuticals, Inc., priority 2009, dated 2015).
# How the values were obtained:
# [1] = tested on: Aβ42; experiment: Method 1: Aβ42 sandwich ELISA in supernatant of SKNBE2 cells carrying APP 695-wild type (Tables 7a, 7b); assay type: cell-based
# Procedure, shortened: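 IC50 values were derived with a 4-parameter equation, fitting either percent inhibition or percent of compound-free Aβ42 as the control. The Aβ42 came from supernatants of APP695 wild-type SKNBE2 cells treated for 18 hours. It was measured by ELISA with anti-Aβ42 capture, biotinylated 3D6 and TMB absorbance at 450 nm.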
# [2] = tested on: Aβtotal; experiment: Method 1: Aβtotal sandwich ELISA in supernatant of SKNBE2 cells carrying APP 695-wild type (Tables 7a, 7b); assay type: cell-based
# Procedure, shortened: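 SKNBE2 cells expressing wild-type APP695 were exposed to compound for 18 Hours in Ultraculture with 1% glutamine. Aβtotal in the supernatant was read by 6E10-capture/biotinylated 4G8 sandwich ELISA with a fluorogenic peroxidase read-out, and WST-1 checked toxicity. IC50 came from a 4-parameter fit of percent inhibition or percent of control versus concentration.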
# [3] = tested on: Notch-processing activity of the γ-secretase-complex; experiment: Notch cell-free assay (NICD production from recombinant Notch substrate N99); assay type: biochemical; settings: 1 μM test compound; 0.3-0.5 μM mouse Notch substrate; enriched gamma secretase; 37° C., 6 to 22 h; western blot; control GSI concentration not given
# Procedure: The Notch transmembrane domain is cleaved by gamma secretase to release Notch Intracellular C-terminal Domain (NICD).
# To monitor the effect of compounds on NICD production, a recombinant Notch substrate (N99) was prepared. The Notch substrate, comprised of mouse Notch fragment (V1711-E1809), an N-terminal methionine and a C-terminal FLAG sequence ([…]), was expressed in E. coli and purified on a column containing an anti-FLAG M2 affinity matrix.
# A typical Notch cell-free assay consisted of 0.3-0.5 μM Notch substrate, an enriched preparation of gamma secretase and 1 μM of a test compound (compounds 16, 18 and 106 of the present invention). Controls included a gamma secretase inhibitor (GSI), such as (2S)—N-[2-(3,5-difluorophenyl)acetyl]-L-alanyl-2-phenyl-glycine 1,1-dimethylethyl ester (DAPT) or (2S)-2-hydroxy-3-methyl-N-[(1S)-1-methyl-2-oxo-2-[[(1S)-2,3,4,5-tetrahydro-3-methyl-2-oxo-1H-3-benzazepin-1-yl]amino]ethyl]-butanamide (Semagacestat), and DMSO, the final concentration of DMSO being 1%. Recombinant Notch substrate was pre-treated with 17 μM DTT (1,4-dithiothreitol) and 0.02% SDS (Sodium Dodecyl Sulfate) and heated at 65° C. for 10 min. The mixture of substrate, gamma secretase and compound/DMSO was incubated at 37° C. for 6 to 22 hours (h). Six-hour incubation was sufficient to produce the maximal amount of NICD and the cleaved product remained stable for an additional 16 H. Reaction products were processed for SDS PAGE (Sodium Dodecyl Sulfate-Poly Acrylamide Gel Electrophoresis) and western blotting. Blots were probed with an anti-Flag M2 antibody, followed by LI-COR infrared secondary antibody, and analyzed with the Odyssey Infrared Imaging System (LI-COR® Biosciences).
# [4] = Homo sapiens, SKNBE2, Table 7b, averaged IC50, non-linear regression of percentage of control vs log concentration, 4-parameter equation
# [5] = Homo sapiens, Table 7a, SKNBE2 cells, compounds 18 h, XLfit 4-parameter fit of percent inhibition, top/bottom fixed to 100/0, hill slope 1
# [6] = Table 7b, averaged IC50, non-linear regression of percentage of control vs log concentration, 4-parameter equation
Structure (SMILES),"IC50 [1, 4] [nM]","IC50 [1, 5] [nM]",melting point [°C],"IC50 [2, 4] [nM]","IC50 [2, 5] [nM]",effect on the Notch-processing activity of the γ-secretase-complex (production of NICD) [3],"IC50 [1, 6] [nM]","IC50 [2, 6] [nM]"
Cc1ncoc1-c1ccc(Nc2cccc3c2nc(-c2ccc(F)cc2)n3C)nc1 [Compound 10],355,358,195.4,–,–,–,–,–
COc1cc(Nc2cccc3c2nc(CCC(F)(F)F)n3C)ccc1-c1ocnc1C [Compound 11],71,72,–,–,–,–,–,–
COc1cc(Nc2cccc3c2nc(-c2ccc(F)cc2)n3C)ccc1-c1ocnc1C [Compound 12],21,23,–,> 3000,> 1000,–,–,–
COc1cc(Nc2cccc3c2nc(-c2ccc(F)cc2)n3C)ccc1-c1cnc(C)o1 [Compound 16],9,11,189,> 3000,> 3000,did not show an effect,–,–
Cc1ncc(-c2ccc(Nc3nccc4c3nc(-c3ccc(F)cc3)n4C)cc2F)o1 [Compound 17],> 10000,–,–,> 3000,–,–,–,–
Cc1ncc(-c2ccc(Nc3cccc4c3nc(-c3ccc(F)cc3)n4C(C)C)cn2)o1 [Compound 18],35,–,133.4,> 3000,–,did not show an effect,–,–
COc1cccc(-c2nc3c(Nc4ccc(-c5cnc(C)o5)nc4)cc(F)cc3n2C)c1 [Compound 105],–,–,–,–,–,–,7,> 3000
COc1cc(Nc2nc(C(F)(F)F)cn3cc(C)nc23)ccc1-c1cnc(C)o1 [Compound 170],–,–,–,–,–,–,3550,–
COc1cc(Nc2cncc3c2nc(-c2ccc(F)cc2)n3C)ccc1-c1cnc(C)o1 [Compound 186],–,–,–,–,–,–,162,> 10000
COc1cc(Nc2cc(C(F)(F)F)nn3cc(C)nc23)ccc1-c1cnc(C)o1 [Compound 195],–,–,–,–,–,–,195,> 10000
